# Measured values reported in PMC11271967, “An inhibitory mechanism of AasS, an exogenous fatty acid scavenger: Implications for re-sensitization of FAS II antimicrobials” (PLOS Pathogens, 2024).
# “Also recorded” adds a separate entry of the source. Read-outs that look alike come from different tables or passages of the source.
# What was measured:
# AasS [1] = molecular target: T1, AasS (Vibrio harveyi, UniProt Q00IB3); test: Microscale thermophoresis (MST), wild-type AasS; format: binding; conditions: AasS 40 nM; C10/ATP mixture 0.15 nM to 5.0 μM
# Method: (§1) To validate poor binding of AasS(D411A) to C10 fatty acyl adenylate observed in our ITC assays, the relatively-more sensitive approach of microscale thermophoresis (MST) was additionally applied here as Jerabek-Willemsen et al. described with minor alteration. Using the Protein Labeling Kit (Protein Labeling Kit RED-NHS 2nd Generation, Nano Temper Technology), both the wild-type AasS and its D411A mutant were fluorescently labelled in the MST buffer (150 mM NaCl, 25 mM Tris-HCl, 3 mM MgCl2, 0.05% Tween-20, pH 8.0). The ligand C10-AMP used in MST assays was prepared by an equal mixture of C10 and ATP. In general, an NT.115 Monolith instrument (Nano Temper Technology, Germany) was integrated, of which the routine parameters included a RED/LED (20%) excitation power along with 60% laser power for excitation. Then, the protein samples were siphoned into MST Premium Coated capillaries for the determination of binding affinity at room temperature. The final concentrations of different AasS samples were 40 nM for WT, and 180 nM for D411A, respectively. The mixture of C10/ATP was diluted in a gradient (from 0.15 nM to 5.0 μM). Three independent MST experiments were conducted here. The dissociation constants (Kd) were calculated using the software MO. Affinity Analysis v2.3. Of note, this was largely dependent on the KD model with a 1:1 stoichiometry per binding partner.
# AasS(D411A) = test: Microscale thermophoresis (MST), AasS(D411A) mutant; format: binding, Vibrio harveyi; conditions: D411A 180 nM; C10/ATP mixture 0.15 nM to 5.0 μM
# Method: as §1
# AasS [2] = molecular target: T1, AasS; test: Isothermal titration calorimetry (ITC), wild-type AasS; format: binding; conditions: for binding to AasS in ITC: negative controls
# Method: The assays of Isothermal titration calorimetry (ITC) were conducted to address the stoichiometry of AasS binding to its C10-AMS inhibitor and C10-AMP intermediate. Since both malic acid and pimelic acid are not substrates for AasS, the two dicarboxylic acids were assumed as negative controls in our ITC analysis. Using a micro-calorimeter (MicroCal PEAQ-ITC) as recently described for E-C7 with little change, totally 18 titrations (2 μl each at an internal of 2.5 min) proceeded in the cell at room temperature. Prior to the titration, AasS protein (~40 μM) was saturated with its ATP cofactor (120 μM) in the cell, and C10-AMS inhibitor (or C10) was kept at 600 μM in the syringe. The titration buffer was composed of 150 mM NaCl, 25 mM Tris-HCl (pH8.0), 2 mM DTT, and 3 mM MgCl2. One set of site model by the MicroCal PEAQ-ITC software enabled plotting the titration curves. Next, the stoichiometry (N) and dissociation constant (Kd) were calculated. It was given as an average ± standard deviation (SD) from three independent trials.
# AasS [3] = test: In vitro enzymatic activity of AasS (acyl-ACP formation, conformationally-sensitive urea PAGE, ImageJ semi-quantitation); format: biochemical, Vibrio harveyi; conditions: for activity as substrate of AasS in vitro (ligation with holo-ACP): urea gel; for C10-ACP conversion from C10 substrate, Average: AasS 3 nM, fig. 2E
# [4] = test system: AasS-expressing E. coli ΔbioC strain; test: AasS-based bypass of biotin synthesis, bacterial viability on M9 agar; format: cell-based, Escherichia coli; conditions: biotin-deficient M9 medium
# From the text: Fig 4 Integrated evidence for the inhibition of AasS action with E-C7 fatty acid by C10-AMS compound. A. Schematic diagram of AasS-catalyzed ligation of E-C7 with holo-ACP recipient to produce E-C7-ACP. […] A representative photograph of three independent trials was given. C. Relatively-quantitative analysis (for the inhibitory efficacy of C10-AMS on AasS-catalyzed E-C7-ACP production. As for AasS reaction (panel B), unlike the three components that are at constant levels, namely (i) AasS (31.25 nM), (ii) E-C7 (600 μM), and (iii) ACP (3 μg), C10-AMS inhibitor was supplemented at varied ratio in relative to the AasS enzyme (ranging from 0:1, 25:1, 50:1, 100:1, 200:1, 300:1, 400:1, to 500:1). The ImageJ software was applied to measure the relative percentage (%) of E-C7 fatty acylation in each AasS reaction. The resultant graphs were plotted from three independent experiments, in which the output was expressed as means ± SD (standard deviations). D. Schematic diagram for C10-AMS inhibition of AasS-based bypass of biotin requirement by the E. coli ΔbioC biotin auxotroph on the non-permissive condition. […] Log-phase cultures in a series of 10-fold dilution (shown in panel on right hand), were spotted on the x-gal-containing M9 agar plates supplemented with C10-AMS inhibitor at varied levels (0, 50, 100, to 500 μM). The addition of x-gal substrate enabled the occurrence of blue colonies for better photographing, and viable colonies were highlighted with yellow arrows.
# Given that AasS ligates E-C7 fatty acid with holo-ACP, giving E-C7-ACP, an alternative precursor for bacterial biotin synthesis, plasmid-borne aasS expression in ΔbioC biotin auxotroph strain is assumed to overcome the requirement of the primary BioC step [58, 83]. Apart from its WT, three single mutants of AasS (D411A, R426A, and K432A) were examined in vivo, of which the compromised activity is presumably proportional to the varied viability of the ΔbioC reporter strains on the non-permissive M9 growth condition. To test its inhibitory effect, the C10-AMS inhibitor in a series of dilution was supplemented. […]
# AasS [5] = molecular target: T1, AasS; set-up: method as in PMID 39794554; conditions: cited from earlier work
# [6] = test system: MenE, an o-succinylbenzoyl-CoA synthetase; conditions: cited from earlier work
# AasS (D411A) = test: Isothermal titration calorimetry (ITC), AasS (D411A) mutant; format: binding, Vibrio harveyi
# Method: Fig 7 Parallels in binding of AasS to the C10-AMP adenylate intermediate and the C10-AMS inhibitor. Structural visualization for AasS binding an intermediate C10-AMP adenylate (A) and its inhibitor C10-AMS (B). […] C. […] Both AasS enzymatic reaction and conformationally-sensitive gel separation were conducted as described in Fig 2D and 2F. D. In vivo evidence that the three single mutants of AasS (D411A, R426A, and K432A) lose the ability to bypass the physiological requirement of biotin for the bioC isogenic mutant of E. coli on the non-permissive condition. The bacterial viability on M9 defined agar medium was determined as performed in Fig 4E. […] The ITC assays were carried out as we conducted in Fig 3B.
# The assays of Isothermal titration calorimetry (ITC) were conducted to address the stoichiometry of AasS binding to its C10-AMS inhibitor and C10-AMP intermediate. Since both malic acid and pimelic acid are not substrates for AasS, the two dicarboxylic acids were assumed as negative controls in our ITC analysis. Using a micro-calorimeter (MicroCal PEAQ-ITC) as recently described for E-C7 with little change, totally 18 titrations (2 μl each at an internal of 2.5 min) proceeded in the cell at room temperature. […] Next, the stoichiometry (N) and dissociation constant (Kd) were calculated. […]
# T1 sequence (Q00IB3 entry or part of it): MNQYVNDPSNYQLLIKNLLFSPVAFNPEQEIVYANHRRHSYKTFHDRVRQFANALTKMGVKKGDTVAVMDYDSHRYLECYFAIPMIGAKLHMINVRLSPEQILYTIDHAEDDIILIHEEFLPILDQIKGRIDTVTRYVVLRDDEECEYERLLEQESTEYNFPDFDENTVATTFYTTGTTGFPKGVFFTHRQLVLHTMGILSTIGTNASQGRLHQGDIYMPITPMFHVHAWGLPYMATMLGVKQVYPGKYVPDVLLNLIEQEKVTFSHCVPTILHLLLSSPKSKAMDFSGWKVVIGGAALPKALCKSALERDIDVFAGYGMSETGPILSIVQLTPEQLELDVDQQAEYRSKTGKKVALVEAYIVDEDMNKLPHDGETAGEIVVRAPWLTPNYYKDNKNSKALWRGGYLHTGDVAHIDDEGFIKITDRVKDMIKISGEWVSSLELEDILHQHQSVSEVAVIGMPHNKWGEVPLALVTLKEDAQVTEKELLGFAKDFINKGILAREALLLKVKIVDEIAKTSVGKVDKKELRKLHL
structure (smiles),measurement,setting,value
"CCCCCCCCCC(=O)OP(=O)(O)OCC1OC(n2cnc3c(N)ncnc32)C(O)C1O (centres unmarked) [C10-AMP, decanoyl-adenylate]",binding by wild-type AasS in MST,AasS [1],efficient binding
same,binding by AasS(D411A) in MST,AasS(D411A),lose its ability of binding
same,stoichiometry (n),AasS [2]; AasS ~40 μM saturated with ATP 120 μM,0.77 ± 0.04
same,Kd,"AasS [2]; AasS ~40 μM saturated with ATP 120 μM, ligand 600 μM in syringe, room temperature, read-out: dissociation constant (Kd)",64.4 ± 5.2 nM
O=C(O)CC(O)C(=O)O (centres unmarked) [malic acid],activity as substrate of AasS in vitro (ligation with holo-ACP),AasS [3],inactive
same,binding to AasS in ITC,AasS [2],none of the two dicarboxylic acids; also recorded: without an ability of binding
same,support of AasS-based biotin bypass as sole carbon source,[4],loss of function in supporting bacterial viability; also recorded: cannot bypass biotin requirement
"CCOC(=O)CCCCCC(=O)O [E-C7, mono-ethyl pimelic acid]",binding affinity to AasS,AasS [5],mild affinity
O=C(O)CCCCCC(=O)O [pimelic acid],activity as substrate of AasS in vitro (ligation with holo-ACP),AasS [3],inactive
same,binding to AasS in ITC,AasS [2],no binding
same,binding to AasS in ITC,AasS [2]; listed as pimelate,none of the two dicarboxylic acids
same,support of AasS-based biotin bypass as sole carbon source,[4],loss of function in supporting bacterial viability; also recorded: Failure of AasS-based biotin bypass
Nc1ncnc2c1ncn2[C@@H]1O[C@H](COS(=O)(=O)NC(=O)CCC(=O)c2ccccc2C(=O)O)[C@@H](O)[C@H]1O [OSB-AMS],mode of inhibition of MenE,[6],mixed-type inhibitor
"CCCCCCCCCC(=O)O [C10, decanoic acid]","C10-ACP conversion from C10 substrate, Average",AasS [3]; C10 6 μM,46.1519
same,"C10-ACP conversion from C10 substrate, Average",AasS [3]; C10 12 μM,68.3859
same,"C10-ACP conversion from C10 substrate, Average",AasS [3]; C10 24 μM,90.5892
same,"C10-ACP conversion from C10 substrate, Average",AasS [3]; C10 60 μM,89.8102
same,"C10-ACP conversion from C10 substrate, Average",AasS [3]; C10 120 μM,91.2632
same,"C10-ACP conversion from C10 substrate, Average",AasS [3]; C10 180 μM,91.9374
same,"C10-ACP conversion from C10 substrate, Average",AasS [3]; C10 240 μM,91.9685
same,binding to AasS (D411A) in ITC (words),AasS (D411A),fails to effectively bind
same,binding to AasS (D411A) in ITC (words),AasS (D411A); listed as decanoic acid,does not
same,Kd,AasS [2],54.4 ± 5.1 nM
